The assay addresses URAT1 (Homo sapiens (Human), UniProt Q96S37). Briefly: Uptake of [14C] uric acid using HEK-URAT1. The format is cell-based. Conditions: for remaining activity at 10 µM: 2 min, [14C] uric acid uptake into URAT1 stably expressed HEK293 cells, 10 μM test compound, 5 μM uric acid, 2 minutes, 37° C., uptake without test compound = 100%, read-out: % control (10 μM); for IC50: inhibition of [14C] uric acid uptake into URAT1 stably expressed HEK293 cells. The method, then:
More specifically, the test is performed by culturing URAT1 stably expressed HEK293 cells (HEK-URAT1) or HEK293 cells transfected with empty vector (HEK-mock) in a DMEM culture medium in an incubator. Subsequently, 1×10^5 cells are respectively seeded in 24-well culture plate coated with poly D-lysine and the uptake test is started after the culturing.
The cells are washed with a solution for a test warmed to 37° C. and equilibrated. After a buffer solution is removed from the cells, 0.5 mL of an uptake solution containing 5 μM [^14C] uric acid with or without a test compound is respectively added and the cells are incubated. The cell uptake is stopped by adding a Hanks buffer solution and the cells are washed. The cells are lysed with 0.1 N sodium hydroxide and the radioactivity is measured using LSC6100 (Aloka Co., Ltd. Tokyo). Each uptake into HEK-URAT1 is acquired by subtracting uptake into HEK-mock cells from the value of HEK-URAT1, converting the result to per mg protein of cells, and setting the values from the uptake without the test compound as 100%.
URAT1 stably expressed HEK293 cells (HEK-URAT1) or HEK293 cells transfected with empty vector (HEK-mock) were cultured in DMEM culture medium supplemented with 10% fetal bovine serum in an incubator under conditions of 5% carbon dioxide at 37° C. Subsequently, 1×10^5 cells were respectively seeded in 24-well culture plate coated with poly D-lysine and the uptake test was started after the culturing for 3 days.
The uptake experiment of uric acid was performed at 37° C. […] After a buffer solution was removed from the cells, 0.5 mL of an uptake solution containing 5 μM [^14C] uric acid with or without a test compound was respectively added and the cells were incubated for 2 minutes. The cell uptake was stopped by adding an ice-cold Hanks buffer solution without chloride ions and the cells were washed 3 times. The cells were lysed with 0.1 N sodium hydroxide and the radioactivity was measured using LSC6100 (Aloka Co., Ltd. Tokyo). Each uptake into HEK-URAT1 was acquired by subtracting uptake into HEK-mock cells from the value of HEK-URAT1, converting the result to per mg protein of cells, and setting the value from uptake without the test compound as 100%. The uptake in each condition was performed in triplicate and each value was represented by average±standard deviation.
The URAT1 inhibitory action was measured according to the same method as in Example 118.

Sequence of URAT1 (Q96S37 whole entry): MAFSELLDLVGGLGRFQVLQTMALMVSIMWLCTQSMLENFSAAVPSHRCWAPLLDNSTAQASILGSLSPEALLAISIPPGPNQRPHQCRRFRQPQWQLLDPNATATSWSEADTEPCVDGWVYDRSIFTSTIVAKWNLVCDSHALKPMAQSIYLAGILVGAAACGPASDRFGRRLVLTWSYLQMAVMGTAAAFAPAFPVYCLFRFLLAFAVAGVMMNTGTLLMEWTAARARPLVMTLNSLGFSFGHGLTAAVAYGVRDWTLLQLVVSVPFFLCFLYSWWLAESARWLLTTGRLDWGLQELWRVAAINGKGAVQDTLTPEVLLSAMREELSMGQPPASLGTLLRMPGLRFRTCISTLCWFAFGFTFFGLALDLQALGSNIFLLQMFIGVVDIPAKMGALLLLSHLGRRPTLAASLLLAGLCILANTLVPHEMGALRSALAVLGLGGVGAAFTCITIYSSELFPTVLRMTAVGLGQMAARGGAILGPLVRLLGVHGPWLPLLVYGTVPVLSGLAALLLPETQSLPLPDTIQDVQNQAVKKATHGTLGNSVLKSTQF

For the compound `CC(C)(C)C(Sc1ccc2cnsc2c1-c1ccc(C#N)cc1)C(=O)O` (stereo not drawn) [Example 114, 2-[[7-(4-Cyanophenyl)benzo[d]isothiazol-6-yl]thio]-3,3-dimethylbutanoic acid], the remaining activity at 10 µM came to 5.8% and it took 474 nM to reach half-maximal inhibition (IC50).
Taken in the same sequence, the figures for `C/C(=C\C(=O)O)Sc1ccc2ccccc2c1-c1ccc(C#N)cc1` [Example 116, (E)-3-[[1-(4-cyanophenyl)naphthalen-2-yl]thio]-2-butenoic acid] were 1.3% and 25 nM.
For `N#Cc1ccc(-c2c(SC3(C(=O)O)CCCCC3)ccc3cnsc23)cc1` [Example 117, 1-[[7-(4-Cyanophenyl)benzo[d]isothazol-6-yl]thio]cyclohexan-1-carboxylic acid] the same measures were 2.7% and 296 nM.

In general, IC50 refers to the concentration needed to halve the response being measured. Read a low IC50 as greater potency.

For the origin of these results see patent US10173990B2, “URAT1 inhibitor” (Nippon Chemiphar Co., Ltd., priority 2014, dated 2019).
